Source: PubChem BioAssay AID220 (DTP/NCI, 2004)
“And” between values parts separate entries of the source, which are not always exact repeats. Equal values may be shown once. Results filed as inconclusive are left out.

Tested on: CD8F1 mice, subcutaneous mammary adenocarcinoma, T/C%
Assay: NCI In Vivo Anticancer Drug Screen. Data for tumor model Mammary Adenocarcinoma CD8F1 (subcutaneous) in CD8F1
Settings: higher = larger tumour
How it was run: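 Transplantable tumors were established in mice, animals were dosed with compound or vehicle, and survival or tumor size was then measured in both groups. The treated result was divided by the control result.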

[1] = endpoint: median tumor weight change, dose: 125.0 mg/kg/injection, schedule: Q01DX001 (ip), vehicle: Klucel (hydroxypropylcellulose) (HPC)
[2] = endpoint: median tumor weight change, dose: 125.0 mg/kg/injection, schedule: Q01DX001 (ip), vehicle: water
[3] = endpoint: median tumor weight change, dose: 125.0 mg/kg/injection, schedule: Q01DX001 (ip), vehicle: saline with Tween-80
[4] = endpoint: median tumor weight change, dose: 250.0 mg/kg/injection, schedule: Q01DX001 (ip), vehicle: saline with Tween-80
[5] = endpoint: median tumor weight change, dose: 500.0 mg/kg/injection, schedule: Q01DX001 (ip), vehicle: saline with Tween-80
[6] = endpoint: median tumor weight (est.), dose: 100.0 mg/kg/injection, schedule: Q07DX005 (ip), vehicle: saline with Tween-80
[7] = endpoint: median tumor weight (est.), dose: 200.0 mg/kg/injection, schedule: Q07DX005 (ip), vehicle: saline with Tween-80
[8] = endpoint: median tumor weight change, dose: 62.5 mg/kg/injection, schedule: Q01DX001 (ip), vehicle: saline with Tween-80

## O=C(CCBr)N1CCN(C(=O)CCBr)CC1
endpoint: median tumor weight (est.), dose: 10.0 mg/kg/injection, schedule: Q07DX005 (ip), vehicle: Klucel (hydroxypropylcellulose) (HPC)
  T/C: 94 % of control
endpoint: median tumor weight (est.), dose: 20.0 mg/kg/injection, schedule: Q07DX005 (ip), vehicle: Klucel (hydroxypropylcellulose) (HPC)
  T/C: 53 % of control
endpoint: median tumor weight (est.), dose: 40.0 mg/kg/injection, schedule: Q07DX005 (ip), vehicle: Klucel (hydroxypropylcellulose) (HPC)
  T/C: 67 % of control
endpoint: median tumor weight (est.), dose: 80.0 mg/kg/injection, schedule: Q07DX005 (ip), vehicle: Klucel (hydroxypropylcellulose) (HPC)
  T/C: 42 % of control
endpoint: median tumor weight (est.), dose: 160.0 mg/kg/injection, schedule: Q07DX005 (ip), vehicle: Klucel (hydroxypropylcellulose) (HPC)
  T/C: 19 % of control
endpoint: median tumor weight (est.), dose: 320.0 mg/kg/injection, schedule: Q07DX005 (ip), vehicle: Klucel (hydroxypropylcellulose) (HPC)
  T/C: 6 % of control

## ClC1C(Cl)C(Cl)C(Cl)C(Cl)C1Cl (configuration not stated)
endpoint: median tumor weight change, dose: 62.5 mg/kg/injection, schedule: Q01DX001 (ip), vehicle: Klucel (hydroxypropylcellulose) (HPC)
  T/C: 169 % of control
[1]
  T/C: 105 % of control
endpoint: median tumor weight change, dose: 250.0 mg/kg/injection, schedule: Q01DX001 (ip), vehicle: Klucel (hydroxypropylcellulose) (HPC)
  T/C: 115 % of control
endpoint: median tumor weight change, dose: 500.0 mg/kg/injection, schedule: Q01DX001 (ip), vehicle: Klucel (hydroxypropylcellulose) (HPC)
  T/C: 64 % of control

## COc1cc2c[n+](C)c3c(c2cc1OC)Cc1cc2c(cc1-3)OCO2
endpoint: median tumor weight change, dose: 62.5 mg/kg/injection, schedule: Q01DX001 (ip), vehicle: suspension in saline
  T/C: 92 % of control
endpoint: median tumor weight change, dose: 125.0 mg/kg/injection, schedule: Q01DX001 (ip), vehicle: suspension in saline
  T/C: 105 % of control

## O=[N+]([O-])O.O=[N+]([O-])O.[NH-]C1CCCCC1[NH-].[Pt+2] (configuration not stated)
endpoint: median tumor weight (est.), dose: 0.5 mg/kg/injection, schedule: Q07DX005 (ip), vehicle: dextrose
  T/C: 46 % of control and 52 % of control
endpoint: median tumor weight (est.), dose: 2.0 mg/kg/injection, schedule: Q07DX005 (ip), vehicle: dextrose
  T/C: 50 % of control
endpoint: median tumor weight (est.), dose: 4.0 mg/kg/injection, schedule: Q07DX005 (ip), vehicle: dextrose
  T/C: 29 % of control and 38 % of control
endpoint: median tumor weight (est.), dose: 8.0 mg/kg/injection, schedule: Q07DX005 (ip), vehicle: dextrose
  T/C: 12 % of control and 29 % of control

## CC(C)[C@](O)(C(=O)OCC1=CCN2CC[C@@H](O)[C@@H]12)[C@H](C)O
[2]
  T/C: 78 % of control
endpoint: median tumor weight change, dose: 250.0 mg/kg/injection, schedule: Q01DX001 (ip), vehicle: water
  T/C: 179 % of control

## CCOC(=O)c1cn(C)c2c1C(O)=C(C(=O)OC)CC(=O)N2
[3]
  T/C: 79 % of control
[4]
  T/C: 97 % of control
[5]
  T/C: 83 % of control
endpoint: median tumor weight change, dose: 1000.0 mg/kg/injection, schedule: Q01DX001 (ip), vehicle: saline with Tween-80
  T/C: 95 % of control

## CC(=O)Nc1ccc(S(=O)(=O)CO)cc1
endpoint: median tumor weight (est.), dose: 12.5 mg/kg/injection, schedule: Q07DX005 (ip), vehicle: saline with Tween-80
  T/C: 222 % of control and 77 % of control
endpoint: median tumor weight (est.), dose: 25.0 mg/kg/injection, schedule: Q07DX005 (ip), vehicle: saline with Tween-80
  T/C: 174 % of control and 409 % of control
endpoint: median tumor weight (est.), dose: 50.0 mg/kg/injection, schedule: Q07DX005 (ip), vehicle: saline with Tween-80
  T/C: 189 % of control and 268 % of control
[6]
  T/C: 211 % of control and 271 % of control
[7]
  T/C: 186 % of control and 403 % of control
endpoint: median tumor weight (est.), dose: 400.0 mg/kg/injection, schedule: Q07DX005 (ip), vehicle: saline with Tween-80
  T/C: 165 % of control and 281 % of control

## O=Cc1c(O)c2ccccc2[nH]c1=O
endpoint: median tumor weight change, dose: 62.0 mg/kg/injection, schedule: Q01DX001 (ip), vehicle: saline with Tween-80
  T/C: 112 % of control
[8]
  T/C: 69 % of control
[4]
  T/C: 61 % of control and 67 % of control
[5]
  T/C: 55 % of control

## C[PH+](C)C.C[PH+](C)C.[Au]
endpoint: median tumor weight change, dose: 1.5 mg/kg/injection, schedule: Q01DX001 (ip), vehicle: saline
  T/C: 112 % of control
endpoint: median tumor weight change, dose: 3.0 mg/kg/injection, schedule: Q01DX001 (ip), vehicle: saline
  T/C: 77 % of control
endpoint: median tumor weight change, dose: 3.12 mg/kg/injection, schedule: Q01DX001 (ip), vehicle: saline
  T/C: 95 % of control
endpoint: median tumor weight change, dose: 12.5 mg/kg/injection, schedule: Q01DX001 (ip), vehicle: saline
  T/C: 60 % of control and 80 % of control

## C/C=C(\Cl)C1=CC(=O)C23CC2C2(C)COC1(O)C3(O)O2 (configuration not stated)
endpoint: median tumor weight (est.), dose: 6.0 mg/kg/injection, schedule: Q07DX005 (ip), vehicle: saline with Tween-80
  T/C: 90 % of control

## CC1OC1C(=O)C1(O)C(C)C(O)C23OC2(C(O)c2c(O)cccc2C3=O)C1O (configuration not stated)
endpoint: median tumor weight change, dose: 10.0 mg/kg/injection, schedule: Q01DX001 (ip), vehicle: Klucel (hydroxypropylcellulose) (HPC)
  T/C: 84 % of control and 100 % of control and 107 % of control
endpoint: median tumor weight change, dose: 40.0 mg/kg/injection, schedule: Q01DX001 (ip), vehicle: Klucel (hydroxypropylcellulose) (HPC)
  T/C: 66 % of control and 87 % of control

## C[n+]1c(/C=C\C=C\N2CCCCC2)sc2ccccc21
endpoint: median tumor weight (est.), dose: 0.5 mg/kg/injection, schedule: Q07DX005 (ip), vehicle: Klucel (hydroxypropylcellulose) (HPC)
  T/C: 114 % of control
endpoint: median tumor weight (est.), dose: 1.0 mg/kg/injection, schedule: Q07DX005 (ip), vehicle: Klucel (hydroxypropylcellulose) (HPC)
  T/C: 108 % of control

## COCC(O)Cn1ccnc1[N+](=O)[O-] (configuration not stated)
endpoint: median tumor weight (est.), dose: 8.0 mg/kg/injection, schedule: Q07DX005 (ip), vehicle: Klucel (hydroxypropylcellulose) (HPC)
  T/C: 101 % of control
endpoint: median tumor weight (est.), dose: 8.0 mg/kg/injection, schedule: Q07DX005 (ip), vehicle: saline
  T/C: 183 % of control
endpoint: median tumor weight (est.), dose: 16.0 mg/kg/injection, schedule: Q07DX005 (ip), vehicle: Klucel (hydroxypropylcellulose) (HPC)
  T/C: 124 % of control
endpoint: median tumor weight (est.), dose: 16.0 mg/kg/injection, schedule: Q07DX005 (ip), vehicle: saline
  T/C: 256 % of control
endpoint: median tumor weight (est.), dose: 32.0 mg/kg/injection, schedule: Q07DX005 (ip), vehicle: saline
  T/C: 256 % of control
endpoint: median tumor weight (est.), dose: 64.0 mg/kg/injection, schedule: Q07DX005 (ip), vehicle: Klucel (hydroxypropylcellulose) (HPC)
  T/C: 74 % of control
endpoint: median tumor weight (est.), dose: 64.0 mg/kg/injection, schedule: Q07DX005 (ip), vehicle: saline
  T/C: 249 % of control
endpoint: median tumor weight (est.), dose: 128.0 mg/kg/injection, schedule: Q07DX005 (ip), vehicle: Klucel (hydroxypropylcellulose) (HPC)
  T/C: 88 % of control
endpoint: median tumor weight (est.), dose: 128.0 mg/kg/injection, schedule: Q07DX005 (ip), vehicle: saline
  T/C: 488 % of control
endpoint: median tumor weight (est.), dose: 256.0 mg/kg/injection, schedule: Q07DX005 (ip), vehicle: Klucel (hydroxypropylcellulose) (HPC)
  T/C: 121 % of control
endpoint: median tumor weight (est.), dose: 256.0 mg/kg/injection, schedule: Q07DX005 (ip), vehicle: saline
  T/C: 108 % of control

## CCc1nc(N)nc(N)c1-c1ccc(Cl)c(N=[N+]=[N-])c1
[8]
  T/C: 57 % of control
[3]
  T/C: 78 % of control
endpoint: median tumor weight change, dose: 2000.0 mg/kg/injection, schedule: Q01DX001 (ip), vehicle: saline with Tween-80
  T/C: 24 % of control

## CCCCN(CCCC)C(Cl)=Nc1ccccc1
[1]
  T/C: 82 % of control and 107 % of control

## Cl
endpoint: median tumor weight (est.), dose: 25.0 mg/kg/injection, schedule: Q07DX005 (ip), vehicle: saline
  T/C: 93 % of control
endpoint: median tumor weight (est.), dose: 50.0 mg/kg/injection, schedule: Q07DX005 (ip), vehicle: saline
  T/C: 91 % of control
endpoint: median tumor weight (est.), dose: 100.0 mg/kg/injection, schedule: Q07DX005 (ip), vehicle: saline
  T/C: 67 % of control
endpoint: median tumor weight (est.), dose: 200.0 mg/kg/injection, schedule: Q07DX005 (ip), vehicle: saline
  T/C: 93 % of control
endpoint: median tumor weight (est.), dose: 400.0 mg/kg/injection, schedule: Q07DX005 (ip), vehicle: saline
  T/C: 48 % of control

## COC1C(C)OC(OC2CC(C)(O)Cc3cc4c(c(O)c32)C(=O)c2c(O)cc3c(c2C4=O)OC2OC3(C)C(O)C(N(C)C)C2O)C(OC)C1(C)OC (configuration not stated)
endpoint: median tumor weight (est.), dose: 2.5 mg/kg/injection, schedule: Q07DX005 (ip), vehicle: other
  T/C: 161 % of control
endpoint: median tumor weight (est.), dose: 5.0 mg/kg/injection, schedule: Q07DX005 (ip), vehicle: other
  T/C: 94 % of control
endpoint: median tumor weight (est.), dose: 10.0 mg/kg/injection, schedule: Q07DX005 (ip), vehicle: other
  T/C: 57 % of control

## COC(=O)C12OCC34C(CC5C(C)=CC(=O)C(O)C5(C)C3C(O)C1O)OC(=O)C(OC(=O)CC(C)C)C24 (configuration not stated)
endpoint: median tumor weight (est.), dose: 0.13 mg/kg/injection, schedule: Q07DX005 (ip), vehicle: saline + alcohol
  T/C: 107 % of control
endpoint: median tumor weight (est.), dose: 0.5 mg/kg/injection, schedule: Q07DX005 (ip), vehicle: saline + alcohol
  T/C: 82 % of control
endpoint: median tumor weight (est.), dose: 1.0 mg/kg/injection, schedule: Q07DX005 (ip), vehicle: saline + alcohol
  T/C: 64 % of control
endpoint: median tumor weight (est.), dose: 2.0 mg/kg/injection, schedule: Q07DX005 (ip), vehicle: saline + alcohol
  T/C: 47 % of control

## Cc1cccc(-[n+]2noc(N)n2)c1
endpoint: median tumor weight change, dose: 62.0 mg/kg/injection, schedule: Q01DX001 (ip), vehicle: water
  T/C: 80 % of control
[2]
  T/C: 51 % of control

## Cn1ccc(=Nc2ccc(NC(=O)c3ccc(N=c4ccn(C)c5ccc([N+](=O)[O-])cc45)cc3[N+](=O)[O-])cc2)cc1
[6]
  T/C: 48 % of control
[7]
  T/C: 124 % of control
